SMILES strings stand for the structures. Like-named read-outs stand apart in the source and are kept apart here. Positions of bridges follow the written chain, without caps; N, C: chain ends. Non-standard residues stand in square brackets, D forms with d. Residues, ends and D or L forms follow the SMILES beside them. Phe(4-CH2NH2) = NCc1ccc(C[C@H](N)C(=O)O)cc1; 2Nal = N[C@@H](Cc1ccc2ccccc2c1)C(=O)O; Met(O2) = CS(=O)(=O)CC[C@H](N)C(=O)O; His(π-Me) = Cn1cncc1C[C@H](N)C(=O)O; hCit = NC(=O)NCCCC[C@H](N)C(=O)O; hPhe = N[C@@H](CCc1ccccc1)C(=O)O; hCys = N[C@@H](CCS)C(=O)O; Nle = CCCC[C@H](N)C(=O)O

The assay has as its target human TSP1 (Homo sapiens, UniProt P07996). The assay can be described thus: Cell adhesion inhibition assay (HUVEC adhesion to TSP1-coated plate). The assay is classed as cell-based. The procedure: As referred to herein, the TSP1 inhibitory activity refers to the activity to inhibit one or more effects of TSP1, including angiostatic effect. The TSP1 inhibitory activity is measured by a cell adhesion inhibition assay using human TSP1 and vascular endothelial cells as described hereinbelow in the Examples section. In this assay, when the 50% inhibitory concentration (IC5O) of a test substance is 200 nM or less, the test substance is determined to have TSP1 inhibitory activity.
(Test Example 1) Cell Adhesion Inhibition Assay
I. Materials and Reagents
96 well Non-treated White with clear bottom (Coster, 3632)
BrightMax adhesive sealing films (EXCEL Scientific, WT50)
Proteosave®SS 15 mL (Sumitomo Bakelite, MS-52150)
Thrombospondin human platelet (Calbiochem, 605225)
EGM-2 MV (Lonza, CC-3202): for HUVEC passaging
Collagen coated dish (IWAKI, 4020-010): for HUVEC passaging
Lipidure®-BL802 (NOF Corporation), 5% solution
Albumin solution (35%) fraction V from Bovine (Sigma, A7979)
CellTiter-Glo (Promega, G7572)
Thrombospondin 1 vial (25 μg) was dissolved in TBS (+2 mM CaCl2; the same shall apply hereunder) to make a 200 μg/mL solution, which was diluted with TBS to a concentration of 10 μg/mL in Proteosave® 15 mL tube. The 10 μg/mL solution was dispensed into a 96 well plate at a volume of 50 μL/well (no reservoir was used since the protein easily adsorbs on it), and the plate was left to stand at 4° C. overnight.
Lipidure® was diluted 10-fold with TBS to make a 0.5% solution. After a buffer was discarded from the plate that had been coated at the step of <Plate coat> as described above, the 0.5% solution was dispensed into all wells to be used at a volume of 100 μL/well, and the plate was left to stand at room temperature for 1 hour.
A 0.2 μM solution of each sample was prepared using a dilution buffer (DMEM+0.5% BSA). 2 μL of the 0.2 μM solution was diluted with 500 μL, of dilution buffer to prepare a diluted sample. As a vehicle control, DMSO was diluted in the same way as the samples.
A blocking solution was discarded from the plate that had been treated at the step of <Plate blocking> as described above, and the plate was washed three times with 150 μL/well of TBS. The washing solution used for the third washing was completely sucked out by an aspirator, and the diluted sample was dispensed into the plate at a volume of 50 μL/well. Then, the plate was left to stand at room temperature for 15 to 30 minutes.
To maintain HUVECs, EGM2-MV and a collagen coated dish were used (the cells were ceased to be used after 10th or 1 lth passage since the cell proliferation rate declined at this stage). The cells were dispersed with 0.05% Trypsin/EDTA, harvested in DMEM/0.5% BSA, and centrifuged at 1000 rpm for 3 minutes. After removal of supernatant, the cells were washed once with a DMEM buffer. The cells were resuspended in a DMEM buffer, counted for cell number, and diluted to 10000 cells/50 μL. The cell suspension was dispensed at a volume of 50 μL/well into the plate into which the sample had been dispensed, mixed gently, and incubated at 37° C. for 2.5 hours.
After cell adhesion was confirmed, the culture medium was completely removed by an aspirator, and 100 μL/well of DMEM/0.5% BSA was gently dispensed. Then, DMEM/0.5% BSA was completely removed by an aspirator, and 50 μL/well of DMEM/0.5% BSA was dispensed. After a white seal was applied to the bottom of the plate, 50 μL/well of CellTiter-Glo® was dispensed, and the solution was stirred for 2 minutes and left to stand at room temperature for 8 minutes. […] was detected using EnVision Xcite Multilabel Reader (produced by Perkin Elmer).
On the basis of the measured fluorescence values, the IC50 values (nM) of the different macrocyclic polypeptides for inhibition of cell adhesion were calculated.

Where [1] appears, read: HUVEC adhesion to human platelet thrombospondin-coated plate, 2.5 hours, CellTiter-Glo, read-out: Cell adhesion IC50.
Where [2] appears, read: HUVEC adhesion to TSP1-coated plate, read-out: cell adhesion inhibition (Table 4).

human TSP1, sequence (P07996 19-1170 limits assumed): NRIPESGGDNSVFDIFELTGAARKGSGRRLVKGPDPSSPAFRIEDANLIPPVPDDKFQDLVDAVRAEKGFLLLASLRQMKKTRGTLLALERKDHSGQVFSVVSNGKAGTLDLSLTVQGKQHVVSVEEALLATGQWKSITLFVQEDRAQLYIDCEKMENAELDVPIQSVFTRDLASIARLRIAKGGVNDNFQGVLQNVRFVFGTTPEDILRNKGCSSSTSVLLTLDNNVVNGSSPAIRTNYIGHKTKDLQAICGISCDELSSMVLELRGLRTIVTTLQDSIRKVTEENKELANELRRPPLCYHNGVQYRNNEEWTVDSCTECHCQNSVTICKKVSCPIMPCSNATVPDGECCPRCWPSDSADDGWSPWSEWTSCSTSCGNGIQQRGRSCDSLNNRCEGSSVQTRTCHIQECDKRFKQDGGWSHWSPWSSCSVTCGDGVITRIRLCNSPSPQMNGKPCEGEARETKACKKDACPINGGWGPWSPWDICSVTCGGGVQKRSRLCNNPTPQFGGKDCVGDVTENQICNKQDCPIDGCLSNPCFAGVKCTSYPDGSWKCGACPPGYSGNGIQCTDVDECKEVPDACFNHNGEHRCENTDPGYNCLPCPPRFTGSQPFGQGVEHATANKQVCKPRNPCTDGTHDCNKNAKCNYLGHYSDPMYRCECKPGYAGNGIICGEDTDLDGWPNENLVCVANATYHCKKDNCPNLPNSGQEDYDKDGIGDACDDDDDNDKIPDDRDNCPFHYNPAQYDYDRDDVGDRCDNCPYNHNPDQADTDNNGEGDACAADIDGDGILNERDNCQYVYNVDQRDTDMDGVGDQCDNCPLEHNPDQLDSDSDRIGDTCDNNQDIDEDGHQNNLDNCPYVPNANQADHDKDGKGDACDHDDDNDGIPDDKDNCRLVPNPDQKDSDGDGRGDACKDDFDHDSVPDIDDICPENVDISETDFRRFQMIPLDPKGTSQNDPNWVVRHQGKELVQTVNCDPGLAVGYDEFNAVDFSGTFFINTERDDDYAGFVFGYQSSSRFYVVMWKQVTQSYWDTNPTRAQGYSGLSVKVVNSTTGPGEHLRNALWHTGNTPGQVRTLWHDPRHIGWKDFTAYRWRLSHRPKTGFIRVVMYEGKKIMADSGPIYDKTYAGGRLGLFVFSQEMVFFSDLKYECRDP

For the compound `CC[C@H](C)[C@@H]1NC(=O)[C@H](Cc2ccc3ccccc3c2)NC(=O)CSCC[C@@H](C(N)=O)NC(=O)[C@H](C(C)C)NC(=O)[C@H](Cc2c[nH]c3ccccc23)NC(=O)[C@H](CCCCN)NC(=O)[C@H](C(C)C)NC(=O)[C@H](Cc2c[nH]c3ccccc23)NC(=O)[C@H](CC(N)=O)NC(=O)[C@H](CCCNC(=N)N)NC(=O)CNC(=O)[C@H](CO)NC1=O` [Compound 54] ({CH2CO}-[2Nal]ISGRNWVKWV[hCys]-NH2; thioether N-12), the IC50 under setting [1] is 19.5 nM.

`CC[C@H](C)[C@@H]1NC(=O)[C@H](Cc2c[nH]c3ccccc23)NC(=O)CSC[C@@H](C(N)=O)NC(=O)[C@H](C(C)C)NC(=O)[C@H](Cc2c[nH]c3ccccc23)NC(=O)[C@H](CCCCN)NC(=O)[C@H](C(C)C)NC(=O)[C@H](Cc2c[nH]c3ccccc23)NC(=O)[C@H]([C@@H](C)O)NC(=O)[C@H](CCCCN)NC(=O)CNC(=O)[C@H](CO)NC1=O` [Compound 20] ({CH2CO}-WISGKTWVKWVC-NH2; thioether N-12): under setting [1], the IC50 is 13 nM.

In the case of `CCCC[C@@H]1NC(=O)[C@H](Cc2c[nH]c3ccccc23)NC(=O)[C@H](CC(=O)O)NC(=O)[C@H](CCCNC(=N)N)NC(=O)CNC(=O)[C@H](CO)NC(=O)[C@H]([C@@H](C)CC)NC(=O)[C@H](Cc2ccc3ccccc3c2)NC(=O)[C@H](Cc2c[nH]cn2)NC(=O)CSC[C@@H](C(N)=O)NC(=O)[C@H](C(C)C)NC(=O)[C@H](Cc2c[nH]c3ccccc23)NC(=O)[C@H](CCCCN)NC1=O` [Compound 91] ({CH2CO}-H[2Nal]ISGRDW[Nle]KWVC-NH2; thioether N-13), the IC50 under setting [2] is 17.1 nM.

With `CCCC[C@@H]1NC(=O)[C@H](Cc2c[nH]c3ccccc23)NC(=O)[C@H](CC(=O)O)NC(=O)[C@H](CCS(C)(=O)=O)NC(=O)CNC(=O)[C@H](CO)NC(=O)[C@H]([C@@H](C)CC)NC(=O)[C@H](Cc2ccc3ccccc3c2)NC(=O)CSC[C@@H](C(N)=O)NC(=O)[C@H](C(C)C)NC(=O)[C@H](Cc2c[nH]c3ccccc23)NC(=O)[C@H](CCCCN)NC1=O` [Compound 71] ({CH2CO}-[2Nal]ISG[Met(O2)]DW[Nle]KWVC-NH2; thioether N-12), the IC50 under setting [1] amounted to 17.1 nM.

With `CC[C@H](C)[C@@H]1NC(=O)[C@H](Cc2ccc3ccccc3c2)NC(=O)CSC[C@@H](C(N)=O)NC(=O)[C@H](CCc2ccccc2)NC(=O)[C@H](Cc2c[nH]c3ccccc23)NC(=O)[C@H](CCCCN)NC(=O)[C@H](C(C)C)NC(=O)[C@H](Cc2c[nH]c3ccccc23)NC(=O)[C@H](CC(N)=O)NC(=O)[C@H](CCCNC(=N)N)NC(=O)CNC(=O)[C@H](CO)NC1=O` [Compound 37] ({CH2CO}-[2Nal]ISGRNWVKW[hPhe]C-NH2; thioether N-12), the IC50 under setting [1] stood at 19.6 nM.

`CCCC[C@@H]1NC(=O)[C@H](Cc2c[nH]c3ccccc23)NC(=O)[C@H](CC(=O)O)NC(=O)[C@H](CCCCNC(N)=O)NC(=O)CNC(=O)[C@H](CO)NC(=O)[C@H]([C@@H](C)CC)NC(=O)[C@H](Cc2ccc3ccccc3c2)NC(=O)CSC[C@@H](C(N)=O)NC(=O)[C@H](C(C)C)NC(=O)[C@H](Cc2c[nH]c3ccccc23)NC(=O)[C@H](CCCCN)NC1=O` [Compound 74] ({CH2CO}-[2Nal]ISG[hCit]DW[Nle]KWVC-NH2; thioether N-12): the IC50 under setting [1] came out at 20.7 nM.

`CC[C@H](C)[C@@H]1NC(=O)[C@H](Cc2c[nH]c3ccccc23)NC(=O)CSC[C@@H](C(N)=O)NC(=O)[C@H](C(C)C)NC(=O)[C@H](Cc2c[nH]c3ccccc23)NC(=O)[C@H](CCCNC(=N)N)NC(=O)[C@H](C(C)C)NC(=O)[C@H](Cc2c[nH]c3ccccc23)NC(=O)[C@H](CC(N)=O)NC(=O)[C@H](CCCNC(=N)N)NC(=O)CNC(=O)[C@H](CO)NC1=O` [Compound 11] ({CH2CO}-WISGRNWVRWVC-NH2; thioether N-12): under setting [1], the IC50 was determined as 26 nM.

`CCCC[C@@H]1NC(=O)[C@H](Cc2c[nH]c3ccccc23)NC(=O)[C@H](CC(=O)O)NC(=O)[C@H](CCCNC(=N)N)NC(=O)CNC(=O)[C@H](CO)NC(=O)[C@H]([C@@H](C)CC)NC(=O)[C@H](Cc2ccc3ccccc3c2)NC(=O)[C@H]([C@@H](C)O)NC(=O)CSC[C@@H](C(N)=O)NC(=O)[C@H](C(C)C)NC(=O)[C@H](Cc2c[nH]c3ccccc23)NC(=O)[C@H](CCCCN)NC1=O` [Compound 85] ({CH2CO}-T[2Nal]ISGRDW[Nle]KWVC-NH2; thioether N-13): the IC50 under setting [2] came to 15.5 nM.

`CC[C@H](C)[C@@H]1NC(=O)[C@H](Cc2c[nH]c3ccccc23)NC(=O)CSC[C@@H](C(N)=O)NC(=O)[C@H](C(C)C)NC(=O)[C@H](Cc2c[nH]c3ccccc23)NC(=O)[C@H](CCCCN)NC(=O)[C@H](C(C)C)NC(=O)[C@H](Cc2c[nH]c3ccccc23)NC(=O)[C@H](CC(N)=O)NC(=O)[C@H](CCCNC(=N)N)NC(=O)CNC(=O)[C@H](CO)NC1=O` [Compound 9] ({CH2CO}-WISGRNWVKWVC-NH2; thioether N-12): under setting [1], the IC50 is 27.3 nM.

For the compound `CCCC[C@@H]1NC(=O)[C@H](Cc2c[nH]c3ccccc23)NC(=O)[C@H](CC(=O)O)NC(=O)[C@H](Cc2c[nH]cn2)NC(=O)CNC(=O)[C@H](CO)NC(=O)[C@H](CCCNC(=N)N)NC(=O)[C@H](Cc2ccc3ccccc3c2)NC(=O)CSC[C@@H](C(N)=O)NC(=O)[C@H](C(C)C)NC(=O)[C@H](Cc2c[nH]c3ccccc23)NC(=O)[C@H](C(C)C)NC1=O` [Compound 101] ({CH2CO}-[2Nal]RSGHDW[Nle]VWVC-NH2; thioether N-12), the IC50 under setting [2] amounted to 19.6 nM.

With `CC[C@H](C)[C@@H]1NC(=O)[C@H](Cc2ccccc2)NC(=O)CSC[C@@H](C(N)=O)NC(=O)[C@H](C(C)C)NC(=O)[C@H](Cc2c[nH]c3ccccc23)NC(=O)[C@H](Cc2ccc(CN)cc2)NC(=O)[C@H](C(C)C)NC(=O)[C@H](Cc2c[nH]c3ccccc23)NC(=O)[C@H](CC(N)=O)NC(=O)[C@H](CCCNC(=N)N)NC(=O)CNC(=O)[C@H](CO)NC1=O` [Compound 47] ({CH2CO}-FISGRNWV[Phe(4-CH2NH2)]WVC-NH2; thioether N-12), the IC50 under setting [1] worked out at 16.7 nM.

Consider `CC[C@H](C)[C@@H]1NC(=O)[C@H](Cc2c[nH]c3ccccc23)NC(=O)CSC[C@@H](C(N)=O)NC(=O)[C@H](C(C)C)NC(=O)[C@H](Cc2c[nH]c3ccccc23)NC(=O)[C@H](CCCCN)NC(=O)[C@H](C(C)C)NC(=O)[C@H](Cc2c[nH]c3ccccc23)NC(=O)[C@H]([C@@H](C)O)NC(=O)[C@H](CCCNC(=N)N)NC(=O)CNC(=O)[C@H](CO)NC1=O` [Compound 23] ({CH2CO}-WISGRTWVKWVC-NH2; thioether N-12), for which the IC50 under setting [1] stood at 15.6 nM.

Regarding `CCCC[C@@H]1NC(=O)[C@H](Cc2c[nH]c3ccccc23)NC(=O)[C@H](CC(=O)O)NC(=O)[C@H](CCCNC(=N)N)NC(=O)CNC(=O)[C@H](CO)NC(=O)[C@H]([C@@H](C)CC)NC(=O)[C@H](Cc2ccc3ccccc3c2)NC(=O)CNC(=O)CSC[C@@H](C(N)=O)NC(=O)[C@H](C(C)C)NC(=O)[C@H](Cc2c[nH]c3ccccc23)NC(=O)[C@H](CCCCN)NC1=O` [Compound 75] ({CH2CO}-G[2Nal]ISGRDW[Nle]KWVC-NH2; thioether N-13), the IC50 under setting [1] came out at 16.1 nM.

Take `CC[C@H](C)[C@@H]1NC(=O)[C@H](Cc2ccccc2)NC(=O)CSC[C@@H](C(N)=O)NC(=O)[C@H](C(C)C)NC(=O)[C@H](Cc2c[nH]c3ccccc23)NC(=O)[C@H](Cc2cncn2C)NC(=O)[C@H](C(C)C)NC(=O)[C@H](Cc2c[nH]c3ccccc23)NC(=O)[C@H](CC(N)=O)NC(=O)[C@H](CCCNC(=N)N)NC(=O)CNC(=O)[C@H](CO)NC1=O` [Compound 46] ({CH2CO}-FISGRNWV[His(π-Me)]WVC-NH2; thioether N-12): under setting [1], the IC50 came out at 30.3 nM.

These data come from patent US11149066B2, “Thrombospondin 1-binding peptide” (DAIICHI SANKYO COMPANY, LIMITED, priority 2016, dated 2021).
